How the values were obtained:
[1] = tested on: BMDMs incubated with IL-4 (M2 media); experiment: M2 macrophage polarization of BMDMs with IL-4 (flow cytometry); assay type: cell-based, C57BL/6 mice; conditions: 1 μM PA, M2 media (IL-4), 24 hr, vs VEH
Procedure: Bone marrow-derived macrophages (BMDMs) were isolated from healthy 10-14-week-old C57BL/6 male mice. Briefly, mice were euthanized by isoflurane overdose. Femurs were cleared of muscle and debris. The epiphyses of the femurs were cut and placed knee-down and spun down in a 1.5 mL tube. Bone marrow was collected and resuspended in complete DMEM (cDMEM; 10% FBS, 1% penicillin/streptomycin) and passed through two 100 μm strainers. Cells were plated on an untreated 10 cm dish in cDMEM and allowed to incubate at 37° C. for 4 hr. Adherent/mature monocytes and dendritic cells were discarded, while floating/immature monocytes were collected. Cells were subjected to RBC lysis and resuspended in bone marrow maintenance media (BMMM; 20% L929-conditioned media in cDMEM). Cells were then plated on surface-treated 6-well plates at a 250 k cells/well seeding density. On day 3, fresh BMMM was added. On day 5, media was aspirated and fresh BMMM was added. For M2 macrophage polarization experiments, 6-day mature macrophages were given either cDMEM+VEH, M2 media (cDMEM with 10 ng/mL IL-4)+VEH, or M2 media+1 μM PA. Cells were incubated for 24 hr. For C26 colon tumor conditioned media (C26 CM) experiments, 6-day mature macrophages were given either serum-free media (SFM)+VEH, 33% C26-conditioned media (C26 CM)+VEH, or 33% C26 CM+1, 2.5, or 5 μM PA. Cells were incubated for 48 hr. After incubation with these different treatments, cells were washed twice with PBS and incubated with 5 mM EDTA PBS at 4° C. for 20 min. Cells were then gently scraped and transferred into flow tubes, spun at 1600 rpm at 4° C. for 5 min, and washed in PBS before antibody staining. Cells were stained and analyzed for macrophages via flow cytometry as described above with the addition of analyzing macrophage phenotypes. From the CD11b^+CD68^+ macrophage population, macrophage phenotypes were determined based on CD206 and CD11c expression. […] All cells were measured using a FACS Aria II (BD) and analyzed using FlowJo (BD Biosciences). […]

[2] = tested on: DSS-induced acute colitis; experiment: DSS mouse model, Experiment 2: acute colitis; assay type: in vivo, C57BL/6 female mice
Procedure: Experiment 2—Acute Colitis: 14-week-old C57BL/6 female mice were given 1 cycle of 2% DSS in drinking water for 7 days, immediately followed by 7 days of regular drinking water. Either vehicle or panaxynol was administered 3×/week beginning on the day prior to the first DSS cycle (day −1) until study completion (FIG. 10A). To ensure the induction of colitis and to quantify disease states, colitis symptoms were monitored every other day using the same DAI as above. Mice were euthanized on day 14—one day after the last dose of panaxynol was given. Colons were placed in the appropriate buffers for further analysis. Data presented in FIGS. 10-14 (i.e., histology, immunofluorescence, electron microscopy, and flow cytometry) was obtained using colonic tissue from 2 cohorts of Experiment 2—Acute Colitis.
Panaxynol (PA; C17H24O) was purchased from Biopurify Pytochemicals Ltd in sealed 5 mg/mL vials in pure 95% ethanol and stored at −20° C. PA was prepared fresh on the day of treatment by diluting in H2O to 1 mg/mL for administration (p.o.) at a dosage of 2.5 mg/kg. This dosage was chosen following a pilot dose-response study to determine PA's efficacy. […]
All mice underwent the same symptom monitoring and scoring. […] Symptom scores were calculated by scoring percent body weight loss, stool consistency, and rectal bleeding as previously described. Briefly, fresh colonic evacuates were smeared onto “Hemoccult” tape (Beckman Coulter) to assess severity of diarrhea and were tested with developer (Beckman Coulter) to assess rectal bleeding. Stool consistency was scored as follows: solid cylinder (0), soft cylinder and easily spreadable (2), and noncylindrical or runny (4). Bleeding was scored as follows: no positive detection of blood (0), detection of blood but not grossly visible (2), and gross visibility of blood (4). Body weight was calculated as percent bodyweight loss: 0%-5% (0), 6%-10% (1), 11%-15% (2), 15%-20% (3), 20%-25% (4), and >25% (5). Scores of all three categories were summed to obtain an overall symptom score for each mouse.
Prior to euthanasia, colonoscopies were performed (n=3/group) to visualize the colonic tissue and quantify the severity of disease (colitis and colorectal tumors) using an established protocol. Briefly, mice were anesthetized with isoflurane to perform a detailed endoscopic examination in which the endoscope was gently inserted into the rectum and through the anus. Air was applied to slowly set apart the intestinal walls for examination. As the scope advanced, pictures were taken frequently and the following were meticulously assessed and scored by the blinded primary investigator using the well-established scoring system to integrate evaluation of intestinal inflammation (i.e., focal lesions (edematous areas of mucosa, erosions/reddened areas, ulcers), perianal region findings (diarrhea, bloody anal discharge, or prolapse), transparency of the colonic wall (visualization of the intramural blood vessels), and presence of intestinal bleeding) and tumors. Scoring was performed as previously described with no modifications. Upon completion of colonoscopies, mice were placed on a warm pad set at 37° C. for 5 min.
Lamina propria (LP) cells were isolated from colons to be used for flow cytometry to identify immune cell populations within the colonic LP. Colons were rinsed in sterile ice-cold PBS and minced with scissors. Tissues were subjected to a cell dissociation solution (HBSS without Ca^2+Mg^2+ containing 5 mM EDTA and 1 mM DTT) in a shaking incubator for 30 min at 37° C. Tubes containing dissociated tissues were vortexed and passed through a 100 μm cell strainer; flow through containing intestinal epithelial cells (IECs) was discarded. Remaining tissue was subjected to a cell digestion buffer (HBSS with Ca^2+Mg^2+ containing 5% FBS, 5 mg/mL Collagenase D, 50 μg/mL DNase 1, and 1 U/mL Dispase) in a shaking incubator for 30 min at 37° C. Tubes were vortexed and passed through a 40 μm cell strainer. […]

## C=CC(O)C#CC#CC/C=C\CCCCCCC (stereo in doubt) [PA, 3(R)-(9Z)-heptadeca-1,9-dien-4,6-diyn-3-ol]
[1]; p=0.06
  naïve M0 macrophages: increased
[1]; p=0.08
  M2 macrophages: non-significantly reduced
[1]; p=0.12
  transitional M1-M2 macrophages: non-significantly reduced
[2]; Alcian Blue, DSS+Veh -75% vs Control, p=0.0003
  goblet cell count per crypt: rescued
[2]; DAI, vs DSS+Veh
  rectal bleeding: decreased
  stool consistency: improved
[2]; H&E, DSS+Veh +124% vs Control, Pax vs Control p=0.641
  average crypt width: not different from Control
[2]; day 14, vs DSS+Veh, p=0.012
  reduction in inflammation (endoscopic score): 63%
[2]; day 14, vs DSS+Veh, p=0.014
  reduction in total endoscopic scores: 62%
[2]; day 14, vs DSS+Veh, p=0.029
  reduction in total lesions (endoscopic score): 58%
[2]; day 14, vs DSS+Veh, p=0.033
  reduction in erosions (endoscopic score): 55%
[2]; day 14, vs DSS+Veh, p=0.047
  reduction in ulcers (endoscopic score): 62%
[2]; distal colon
  widening and gaping of the crypts (SEM 3000×): partially rescued
[2]; distal colon, edema seen only in DSS+Veh
  edema in the intercellular space of IECs (TEM): no edema
[2]; distal colon, vs DSS+Veh
  mucus on mucosa (SEM 2000×): more areas of mucus formation, preservation, and abundance
[2]; end of study, not significant vs DSS+Veh 18.4±0.6, p=0.383
  body weight: 19.1 ± 0.4 g
[2]; flow cytometry, between DSS-treated groups, p=0.446
  CD45+CD4+ helper T-cells in colonic LP: no significant differences
[2]; flow cytometry, vs DSS+Veh, p=0.011
  M1 macrophages in colonic LP: decreased
[2]; flow cytometry, vs DSS+Veh, p=0.019
  relative abundance of naïve (M0) macrophages in colonic LP: increased
[2]; flow cytometry, vs DSS+Veh, p=0.027
  TCRβ+FoxP3+ T-regs in colonic LP: significantly increased
[2]; flow cytometry, vs DSS+Veh, p=0.041
  M2 macrophages in colonic LP: decreased
[2]; flow cytometry, vs DSS+Veh, p=0.056, not statistically significant
  LiveCD45+ immune cells in colonic LP: trending increase
[2]; flow cytometry, vs DSS+Veh, p=0.07, not statistically significant
  CD11b+CD68+ macrophages in colonic LP: decrease
[2]; flow cytometry, within DSS-treated groups, p=0.085
  transitional (M1/M2) macrophages in colonic LP: no significant differences
[2]; rightward shift Control to DSS+Veh, FIG. 11C
  crypt width distribution curve: significantly (p≤0.05) improved
[2]; throughout treatment, vs DSS+Veh
  DAI scores: significantly (p≤0.05) improved
